The values that follow come from patent publication US9499790B2, “Method for promoting differentiation of pluripotent stem cells into cardiac muscle cells” (Kyoto University, priority 2010, dated 2016).

Holding throughout (type): cell-based
Assay [1] concerns Wnt signaling target genes in human iPS cells. The experiment in a line: Gene expression analysis by DNA array and quantitative polymerase chain reaction. Conditions: FIG. 9. On the procedure:
(in the order of the genes whose expression were reduced most 12 hours later) HOXA1, MSGN1, NKD1, T, TNFRSF11B, DKK1, DKK4, CDX2, MSX1, NODAL, FGF4, PAPPA, PRRX1, LRAT, CYP1B1, SLC34A2, AXIN2, LGL1, SPS, MIXL1, APCDD1 and DSEL. […] The analyzed genes were as follows: MSGN1, HOXA1; T, MIXL1; Dkk1, AXIN2; NODAL and FGF4 (all known as Wnt signaling target genes).

In assay [2] the test system is Monkey ES cells. The experiment in a line: Cardiac muscle cell differentiation of monkey ES cells, 6-well plate, GFP expression observed at day 14. Conditions: for effect of BIO on the compound's effect of cardiac muscle cell differentiation (GFP expression): BIO 5 μM added together with the compound during day 4 to 10; for effect of BIO on the compound's effect of cardiac muscle cell differentiation (GFP expression) / increase in the GFP expression level: GFP at day 14. An excerpt:
In the same manner as Example 2, the effects of promoting cardiac muscle cell differentiation were compared among KY02111 and N11474, known Wnt signaling inhibitors (IWP2, XAV939 and IWR1), proteins known to be effective in promoting cardiac muscle cell differentiation (G-CSF, IGFBP4, Dkk1 and cytokines (a mixture of bFGF, BMP4, VEGF, DKK1 and Activin A)).
The effect of BIO, a Wnt signaling activator, on the effect of promoting cardiac muscle cell differentiation of KY02111, XAV939 and IWP2 was analyzed. […]

For assay [3], the system named is monkey ES cells (CMK 6.4 cynomolgus monkey ES cell line). The experiment in a line: Cardiac muscle cell differentiation of monkey ES cells, compound day 4 to 8, GFP fluorescence at day 10 (MetaMorph). Conditions: for effect of promoting cardiac muscle cell differentiation, carbon chain length (n) series: FIG. 16. An excerpt:
Compounds substituted at the position R7 of Formula 1, which corresponds to Cl of KY02111, were synthesized and examined for the effect of promoting cardiac muscle cell differentiation in a dose-dependent manner in monkey ES cells as described in Example 2. Specifically, a vector expressing green fluorescent protein (GFP) under control of promoter of α-MHC gene, a marker of cardiac muscle cell differentiation, was introduced into monkey ES cells (CMK 6.4 cynomolgus monkey ES cell line) and the cells were seeded on 6-well culture plates (Asahi Glass/5816-006: Ezview culture plate) in 4.0×10^5 cells/well, and cultured in an IMDM-based differentiation medium for cardiac muscle cells (200 ml IMDM (Sigma) containing 50 ml bovine fetal serum (GIBCO), 2.5 ml MEM non-essential amino acid solution (Sigma), 2.5 ml penicillin-streptomycin (GIBCO), 2.5 ml 200 mM L-glutamine, 2 μl 2-mercaptoethanol). Each compound was added to the cells during day 4 to day 8 of the cardiac muscle cell differentiation culture, and the GFP fluorescence was analyzed at day 10 by using MetaMorph imaging system.

Where [4] appears, read: nitrovin 1 μM during day 8 to 12, singly.

Turning to `O=C1Nc2cc(Br)ccc2/C1=C1/Nc2ccccc2/C1=N\O` [BIO, reference compound], the “expressions of MSGN1, HOXA1, T, MIXL1, Dkk1, AXIN2, NODAL and FGF4 (Wnt signaling target genes) by qPCR” value (from here on “expressions of MSGN1, HOXA1, T, MIXL1”) in assay [1] is reported as “increased”.
As to `Cc1ccc2nc(NC(=O)CSc3nc4c(c(=O)n3-c3ccccc3)SCC4)sc2c1` [IWP2, reference compound], the “effect of BIO on the compound's effect of cardiac muscle cell differentiation (GFP expression)” value in assay [2] is listed as “inhibited”. In addition, the “expressions of MSGN1, HOXA1, T, MIXL1” value in assay [1] is “reduced”.
Regarding `COc1ccc(CCC(=O)Nc2nc3ccc([N+](=O)[O-])cc3s2)cc1OC` [KY01042, 2-(3-(3,4-dimethoxyphenyl)propanamide)-6-nitrobenzothiazole], the “increase in the GFP expression level” value in assay [2] (10 μM during day 4 to 10) is reported as 7000%.
`COc1ccc(CC(=O)Nc2nc3ccc(I)cc3s2)cc1OC` [SO3031, 2-(2-(3,4-dimethoxyphenyl)acetamide)-6-iodobenzothiazole]: in assay [3], the “effect of promoting cardiac muscle cell differentiation, carbon chain length (n) series” value is given as “higher effect compared to KY02111”.
`COc1ccc(CCCC(=O)Nc2nc3ccc(I)cc3s2)cc1OC` [SO3042, 2-(4-(3,4-dimethoxyphenyl)butamide)-6-iodobenzothiazole]: the “effect of promoting cardiac muscle cell differentiation, SO2031 versus SO3042” value in assay [3] (0.1 μM, 0.4 μM and 2 μM, separate experiment, FIG. 17) is “comparable effect”. Moreover, in assay [3], the “effect of promoting cardiac muscle cell differentiation, carbon chain length (n) series” value is given as “higher effect compared to KY02111”. Also, in assay [3] (high dose (10 μM or 30 μM)), the “effect compared to SO2031 (KY02-I)” value was 1.3 times. For the same molecule, the “effect of promoting cardiac muscle cell differentiation, SO3042 versus SO2031” value in assay [3] (higher dose (10 μM), FIG. 17) is “slightly higher than that of SO2031”. Besides, the “effect compared to SO3031 (KY01-I)” value in assay [3] (low dose (0.1 μM)) is reported as 2.8 times.
`Oc1nc(-c2ccc(C(F)(F)F)cc2)nc2c1CSCC2` [XAV939, reference compound]: the “effect of BIO on the compound's effect of cardiac muscle cell differentiation (GFP expression)” value in assay [2] was “inhibited”. Moreover, in assay [1], the “expressions of MSGN1, HOXA1, T, MIXL1” value was “reduced”.
For the molecule `N=C(N)NN=C(/C=C/c1ccc([N+](=O)[O-])o1)/C=C/c1ccc([N+](=O)[O-])o1` [nitrovin, reference compound], in assay [2] (5 μM during day 8 to 14), the “increase in the GFP expression level” value is given as “about 400%”. For the same molecule, in assay [2] (setting [4]), the “increase in the GFP expression level versus Control (DMSO)” value is “about 3 times”, the “proportion of beating colonies” value is “about 16%” and the “ratio of number of GFP colonies” value is listed as “about 22%”.

B1: G-CSF: granulocyte-colony stimulating factor (protein, UniProt P09919 31-207, looked up)
Granulocyte …: TPLGPASSLPQSFLLKCLEQVRKIQGDGAALQEKLVSECATYKLCHPEELVLLGHSLGIPWAPLSSCPSQALQLAGCLSQLHSGLFLYQGLLQALEGISPELGPTLDTLQLDVADFATTIWQQMEELGMAPALQPTQGAMPAFASAFQRRAGGVLVASHLQSFLEVSYRVLRHLAQP
As to B1, the “increase in the GFP expression level” value in assay [2] (5 ng/ml during day 4 to 10) is on record as “about 250%”.
